# Measurements from ChEMBL document CHEMBL1201862, “PubChem BioAssay data set” (2004).
#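 Method: 48-hour compound exposure of cells in 96-well plates, five concentrations, linear interpolation of endpoints. Here, GI50 denotes the concentration required for 50% inhibition of growth.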 Calls of active or inactive are those of the source. Cut-off read from the data, not from the text of the source: active = GI50 up to about 1.1 µM and inactive = higher.
# Legend:
# Assay in all cases: NCI tumour cell line growth inhibition, 48 h
# K562 = test system: K562
# 786-0 = test system: 786-0
# SW-620 = test system: SW-620
# SR = test system: SR
# ACHN = test system: ACHN
# NCI-H460 = test system: NCI-H460
# Malme-3M = test system: Malme-3M
# SNB-19 = test system: SNB-19
# IGROV-1 = test system: IGROV-1
# RPMI-8226 = test system: RPMI-8226
# M14 = test system: M14
# HOP-18 = test system: HOP-18
# U-251 = test system: U-251
# HCC 2998 = test system: HCC 2998
# KM12 = test system: KM12
# UACC-257 = test system: UACC-257
# RXF 631 = test system: RXF 631
# HT-29 = test system: HT-29
# SK-MEL-2 = test system: SK-MEL-2
# HOP-92 = test system: HOP-92
# SF-539 = test system: SF-539
# SK-OV-3 = test system: SK-OV-3
# SF-295 = test system: SF-295
# CCRF-CEM = test system: CCRF-CEM
# EKVX = test system: EKVX
# A498 = test system: A498
# NCI-H522 = test system: NCI-H522
# LOX IMVI = test system: LOX IMVI
# A549 = test system: A549
# MOLT-4 = test system: MOLT-4
# UO-31 = test system: UO-31
# HCT-116 = test system: HCT-116
# M19-MEL = test system: M19-MEL
# HL-60 = test system: HL-60
# UACC-62 = test system: UACC-62
# DLD-1 = test system: DLD-1
# SF-268 = test system: SF-268
# RXF 393 = test system: RXF 393
# OVCAR-5 = test system: OVCAR-5
# KM-20L2 = test system: KM-20L2
# LXFL 529 = test system: LXFL 529
# SK-MEL-5 = test system: SK-MEL-5
# TK-10 = test system: TK-10
# HCT-15 = test system: HCT-15
# NCI-H23 = test system: NCI-H23
# DMS-114 = test system: DMS-114
# COLO 205 = test system: COLO 205
# SNB-75 = test system: SNB-75
# SK-MEL-28 = test system: SK-MEL-28
# OVCAR-8 = test system: OVCAR-8
# SN12C = test system: SN12C
# XF498 = test system: XF498
compound,measurement,setting,value
Cc1cc(C2CCCCC2)n(O)c(=O)c1 [CICLOPIROX OLAMINE],GI50,K562,3.41 µM (inactive)
same,GI50,786-0,9.48 µM (inactive)
same,GI50,SW-620,5.85 µM (inactive)
same,GI50,SR,2.95 µM (inactive)
same,GI50,ACHN,3.97 µM (inactive)
same,GI50,NCI-H460,2.32 µM (inactive)
same,GI50,Malme-3M,15.7 µM (inactive)
same,GI50,SNB-19,11.6 µM (inactive)
same,GI50,IGROV-1,3.46 µM (inactive)
same,GI50,RPMI-8226,3.56 µM (inactive)
same,GI50,M14,14.2 µM (inactive)
same,GI50,HOP-18,39.8 µM (inactive)
same,GI50,U-251,0.498 µM (active)
same,GI50,HCC 2998,4.97 µM (inactive)
same,GI50,KM12,4.66 µM (inactive)
same,GI50,UACC-257,1.62 µM (inactive)
same,GI50,RXF 631,5.37 µM (inactive)
same,GI50,HT-29,9.08 µM (inactive)
same,GI50,SK-MEL-2,21.3 µM (inactive)
same,GI50,HOP-92,0.605 µM (active)
same,GI50,SF-539,5.52 µM (inactive)
same,GI50,SK-OV-3,47 µM (inactive)
same,GI50,SF-295,3.81 µM (inactive)
same,GI50,CCRF-CEM,1.1 µM (active)
same,GI50,EKVX,4.04 µM (inactive)
same,GI50,A498,14.7 µM (inactive)
same,GI50,NCI-H522,2.96 µM (inactive)
same,GI50,LOX IMVI,11.9 µM (inactive)
same,GI50,A549,3.91 µM (inactive)
same,GI50,MOLT-4,1.93 µM (inactive)
same,GI50,UO-31,6.32 µM (inactive)
same,GI50,HCT-116,3.7 µM (inactive)
same,GI50,M19-MEL,7.52 µM (inactive)
same,GI50,HL-60,0.178 µM (active)
same,GI50,UACC-62,3.03 µM (inactive)
same,GI50,DLD-1,5.46 µM (inactive)
same,GI50,SF-268,4.25 µM (inactive)
same,GI50,RXF 393,16.5 µM (inactive)
same,GI50,OVCAR-5,8.28 µM (inactive)
same,GI50,KM-20L2,12 µM (inactive)
same,GI50,LXFL 529,4.2 µM (inactive)
same,GI50,SK-MEL-5,10.4 µM (inactive)
same,GI50,TK-10,37.1 µM (inactive)
same,GI50,HCT-15,4.39 µM
same,GI50,NCI-H23,9.08 µM (inactive)
same,GI50,DMS-114,4.74 µM (inactive)
same,GI50,COLO 205,39.4 µM (inactive)
same,GI50,SNB-75,5.46 µM (inactive)
same,GI50,SK-MEL-28,12.6 µM (inactive)
same,GI50,OVCAR-8,3.22 µM (inactive)
same,GI50,SN12C,12.5 µM (inactive)
same,GI50,XF498,10.7 µM (inactive)
